# Values quoted from earlier work as cited in EP1558263B1, “PROLONGED RELEASE PHARMACEUTICAL COMPOSITION” (Akzo Nobel N.V., priority 2002, dated 2004).
# Tested on: Mannheimia haemolytica
# Details: pathogen of respiratory tract infections in cattle
smiles,measurement,value
"CO/N=C(\C(=O)N[C@@H]1C(=O)N2C(C(=O)[O-])=C(C[n+]3cccc4c3CCCC4)CS[C@H]12)c1csc(N)n1 [Cefquinome, cefquinome]",MIC90,0.25 µg/mL
